{
  "source": "patent US5217956A",
  "about": "“Composition and treatment with biologically active peptides and certain anions” (priority 1991, dated 1993)",
  "key": {"Enterobacter cloacae": {"system": "Enterobacter cloacae", "type": "cell-based", "experimental": "(§1) Approximately 1,000 bacteria were seeded into about 200 ul of trypticase soy broth. Either magainin 2 carboxy terminal amide, PGLa, or ALSKALSK ALSKALSKALSKALSK (Z-44) were added in increasing concentrations in the absence (Panel A) or presence (Panel B) of 50 mM NaF."}, "Pseudomonas aeruginosa": {"system": "Pseudomonas aeruginosa", "experiment": "Minimal inhibitory concentration in trypticase soy broth versus Pseudomonas aeruginosa", "type": "cell-based", "experimental": "as §1"}, "E. cloacae": {"system": "E. cloacae", "experiment": "Killing of E. cloacae: viable organisms on plating after incubation in TSB", "type": "cell-based, Enterobacter cloacae", "details": "for CFU / EOP (% viable): 15 min at 37° C.", "experimental": "LEGEND: Organisms were incubated in a volume of 1 ml in either trypticase soy broth alone or containing substances noted for 15 min at 37° C. An aliquot was then diluted and plated to determine number of viable organisms."}},
  "note": "No end group written: not given here.",
  "data": [
    {"molecule": "GMASKAGAIAGKIAKVALKAL-NH2 [PGLa]", "values": [
      {"measurement": "MINIMAL INHIBITORY CONCENTRATION", "setting": "Enterobacter cloacae", "value": "> 250", "unit": "µg/mL"}
    ]},
    {"molecule": "GIGKFLHSAKKFGKAFVGEIMNS-NH2 [MGN2]", "values": [
      {"measurement": "MINIMAL INHIBITORY CONCENTRATION", "setting": "Pseudomonas aeruginosa; Panel A: absence of NaF", "value": "250 to 500", "unit": "µg/mL"},
      {"measurement": "MINIMAL INHIBITORY CONCENTRATION", "setting": "Pseudomonas aeruginosa; Panel B: +50 mM NaF", "value": "60 to 125", "unit": "µg/mL"},
      {"measurement": "bacterial killing", "setting": "E. cloacae; 60 ug/ml MGN2 + 50 mM NaF, 10^7 E. cloacae in 1 ml TSB", "value": "all bacteria are killed"},
      {"measurement": "potentiation of effective killing power by addition of fluoride", "setting": "E. cloacae; 60 ug/ml MGN2 with versus without NaF", "value": "over 1 million"},
      {"measurement": "CFU", "setting": "E. cloacae; peptide 60 ug/ml + NaF 25 mM", "value": 0},
      {"measurement": "EOP (% viable)", "setting": "E. cloacae; peptide 60 ug/ml + NaF 25 mM", "value": 0, "unit": "%"},
      {"measurement": "CFU", "setting": "E. cloacae; peptide 60 ug/ml, no NaF, 10^7 organisms in 1 ml TSB", "value": "about 10^6"},
      {"measurement": "CFU", "setting": "E. cloacae; peptide 60 ug/ml, no NaF, 10^7 organisms in 1 ml TSB, listed as MGN2 (NH2)", "value": "10^6"},
      {"measurement": "EOP (% viable)", "setting": "E. cloacae; peptide 60 ug/ml, no NaF", "value": 90, "unit": "%"}
    ]},
    {"molecule": "[F-].[Na+]", "note": "[NaF, sodium fluoride]", "values": [
      {"measurement": "CFU", "setting": "E. cloacae; NaF 25 mM alone", "value": "10^7"},
      {"measurement": "EOP (% viable)", "setting": "E. cloacae; NaF 25 mM alone", "value": 100, "unit": "%"}
    ]}
  ]
}
